Source: paper PMC8877291, “Design and Synthesis of Arylpiperazine Serotonergic/Dopaminergic Ligands with Neuroprotective Properties” (Molecules, 2022)

Columns and labels:
[1] = molecular target: dopamine D2s receptor (Homo sapiens, UniProt P14416); assay: Dopamine D2s receptor competition binding ([3H]spiperone)
Experimental: Competition binding experiments at dopamine D2s and D3 receptor were performed to determine the affinity of the compounds. […] Membrane preparations of transfected CHO-K1 cells stably expressing the human D2s or D3 receptor were performed according to Bautista-Aguilera et al. [26]. The competition binding experiments were conducted as previously reported [26, 27]. Briefly, membrane fractions (D2sR: 25 µg/200 µL; D3R: 20 µg/200 µL) were incubated with [^3H]spiperone (0.2 nM) and test compound for 120 min at room temperature. […] Non-specific binding was determined in the presence of 10 µM haloperidol. Haloperidol was also used as reference compound. Separation of the bound ligand from the free ligand was conducted by filtration through GF/B filters using deionized water.

[2] = Stability assay in rat liver microsomes; assay type: in vitro ADME; conditions: NADPH-regenerating system; for remaining at 30 min, 10 μM: pH 7.4, rat liver microsomes, 30 min incubation, read-out: Metabolic Stability (percentage of recovery of the parent compound); for in vitro metabolic stability (in words): rat microsomes, 30 min
Experimental: To evaluate the susceptibility to first-pass oxidative metabolism, the leading cause of metabolic degradation in vivo [17] the target compounds were incubated with rat liver microsomes. The turnover of the parent compound was assessed as the percentage of the parent compound recovered after 30 min of incubation with microsomes in the presence of an NADPH-regenerating system.
Test compounds were pre-incubated at 37 °C with rat liver microsomes (Tebu-Bio, Milan, Italy) (1.0 mg/mL microsomal protein) at 10 μM final concentration in 100 mM potassium phosphate buffer (pH 7.4) for 10 min. Metabolic reactions were initiated by the addition of the NADPH regenerating system (containing 10 mM NADP, 50 mM glucose-6-phosphate, and 10 unit/mL glucose-6-phosphate dehydrogenase, final glucose-6-phosphate dehydrogenase concentration, 1 unit/mL). After 30 min incubation, the reaction mixture was quenched by adding an equal volume of cold acetonitrile containing the internal standard. A test compound incubated with microsomes without NADPH regenerating system was included. Quenched samples were centrifuged at 4500 rpm for 15 min and the supernatants were injected for quantification analysis. Samples (100 μL) were analyzed by using an Agilent 1260 Infinity Binary LC System equipped with a diode array detector (Open Lab software was used to analyze the chromatographic data) and a Phenomenex Gemini C-18 column (250 mm × 4.6 mm, 5 μm particle size). The samples were eluted using CH3CN/20 mM ammonium formate pH 5.5 (7:3, v/v) as eluent (volumetric flow rate =1 mL/min). Concentrations were quantified by measuring the area under the peak.
The percentage of the parent compound remaining after a 30-min incubation was calculated according to the equation:% of parent compound remaining after 30 min = Cparent/Ccontrol × 100(1) where Cparent is ligand concentration after incubation with microsome fraction and NADPH regenerating system and Ccontrol is ligand concentration after incubation with microsome fraction only.

[3] = molecular target: T1, dopamine D5 receptor (Homo sapiens, UniProt P21918); assay: Dopamine D5 receptor competition binding ([3H]-SCH23390); conditions: HEK-293 membranes, [3H]-SCH23390 0.3 nM, mean (CI 95%), read-out: Affinity Ki D5
T1 construct: expressed in transfected cells
Experimental: (§1) The final compounds were tested for their affinity at serotonin 5-HT1A, 5-HT2A, and 5-HT7 receptors and at dopamine D1, D2, D3, and D5 receptors. As a first step, competition radioligand binding assays were carried out for all the compounds at the single concentration of 10 µM, on membrane preparations from stable cell lines heterologously expressing the human cloned 5-HT1A, 5-HT2A, or 5-HT7 receptors. […] For the affinity determination at dopamine receptor subtypes, membrane fractions of human dopamine D2s, D3, D1, and D5 receptor-expressing cells were used. They were co-incubated with [^3H]spiperone (for D2s and D3 receptor) or [^3H]SCH23390 (for D1 and D5 receptor) and appropriate concentrations of test compound for 120 min. Bound radioligand was separated from the free ligand using filtration. Radioactivity was measured by liquid scintillation counting.
The affinity for dopamine D1 and D5 receptors was evaluated in membrane fractions of HEK-293 cells stably expressing the human dopamine D1 or D5 receptor. HEK-293-D1 cells were cultured in DMEM/F12 (15 mM HEPES, 1.2 g/L NaHCO3) with 10% (v/v) FBS and 1% (v/v) L-glutamine. HEK-293-D5 cells were cultured in DMEM/F12 (with L-glutamine, 1.2 g/L NaHCO3) with 20% (v/v) FBS. Preparation of membrane fractions and radioligand competition assays were performed as previously described. Briefly, membrane fractions were co-incubated with [^3H]-SCH23390 (0.3 nM) and different concentrations of test compound for 120 min at room temperature. Fluphenazine (100 µM) was used to determine non-specific binding and as reference compound.
Data of at least three independent experiments in triplicate were analyzed using GraphPad Prism 8.1 (San Diego, CA, USA). Binding curves were fitted to a non-linear regression model (one-site competition). Ki values were calculated from IC50 values using the Cheng–Prusoff equation. The statistical calculations were performed on –log(Ki).

[4] = molecular target: T2, serotonin 5-HT7 receptor (5-HT7A) (Homo sapiens, UniProt P34969); assay: 5-HT7 receptor radioligand competition binding ([3H]-SB269970); conditions: human cloned 5-HT7A receptor, HEK293 membranes, 2 nM [3H]-SB269970; ± S.E.M., n = 3 in duplicate; read-out: Affinity Ki 5-HT7
T2 construct: expressed in transfected cells
Experimental: as §1, with “As” for “The final compounds were tested for their affinity at serotonin 5-HT1A, 5-HT2A, and 5-HT7 receptors and at dopamine D1, D2, D3, and D5 receptors. As”
The affinity of the compounds for serotonin 5-HT7 receptor was evaluated in membrane preparations from HEK293 cells stably expressing the human cloned 5-HT7A receptor, following previously described procedures with minor modifications. Competition binding experiments were performed using 2 nM [^3H]-SB269970 (34.5 Ci/mmol, 0.25 mCi/mL, Perkin Elmer NET1198U250UC) as radioligand. […] Methiothepine was included in the assays as reference compound. Assays were carried out in duplicate in 96-well assay plates, in assay buffer (50 mM Tris-HCl, 4 mM MgCl2, 1 mM ascorbic acid, 0.1 mM pargyline, pH = 7.4). Assay mixtures were incubated at 37 °C for 60 min, followed by filtration through GF/C glass filter plates, and washing with ice-cold assay buffer. Affinity (equilibrium dissociation constant, Ki) of the compounds was calculated from competition binding curves as indicated above.

T1 sequence (P21918 whole entry): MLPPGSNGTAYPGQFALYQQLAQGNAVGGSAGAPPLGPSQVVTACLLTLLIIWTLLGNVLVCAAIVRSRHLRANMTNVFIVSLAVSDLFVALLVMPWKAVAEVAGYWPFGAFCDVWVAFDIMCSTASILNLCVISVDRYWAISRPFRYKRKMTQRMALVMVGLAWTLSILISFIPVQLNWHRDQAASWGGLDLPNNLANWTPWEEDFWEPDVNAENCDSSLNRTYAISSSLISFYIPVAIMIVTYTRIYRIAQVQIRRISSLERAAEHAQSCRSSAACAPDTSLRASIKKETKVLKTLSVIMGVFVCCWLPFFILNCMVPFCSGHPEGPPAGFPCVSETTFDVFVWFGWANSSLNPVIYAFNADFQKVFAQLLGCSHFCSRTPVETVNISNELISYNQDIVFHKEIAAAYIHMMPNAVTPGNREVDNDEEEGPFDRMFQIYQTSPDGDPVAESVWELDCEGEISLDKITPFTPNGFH
T2 sequence (P34969 1-445 isoform P34969-2): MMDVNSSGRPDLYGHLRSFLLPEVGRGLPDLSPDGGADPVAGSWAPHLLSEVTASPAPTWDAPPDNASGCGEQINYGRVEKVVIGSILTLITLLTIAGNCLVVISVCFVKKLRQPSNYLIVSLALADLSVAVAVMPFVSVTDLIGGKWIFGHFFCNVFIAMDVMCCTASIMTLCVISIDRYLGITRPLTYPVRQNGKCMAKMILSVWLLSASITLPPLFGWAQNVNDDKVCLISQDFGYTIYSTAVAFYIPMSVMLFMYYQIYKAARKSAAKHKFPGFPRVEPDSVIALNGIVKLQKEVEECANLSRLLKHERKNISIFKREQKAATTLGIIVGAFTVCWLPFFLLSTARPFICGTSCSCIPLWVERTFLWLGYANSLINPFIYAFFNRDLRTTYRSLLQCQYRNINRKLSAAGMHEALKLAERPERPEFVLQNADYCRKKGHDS
Sequence of dopamine D2s receptor (P14416 1-414 isoform P14416-2): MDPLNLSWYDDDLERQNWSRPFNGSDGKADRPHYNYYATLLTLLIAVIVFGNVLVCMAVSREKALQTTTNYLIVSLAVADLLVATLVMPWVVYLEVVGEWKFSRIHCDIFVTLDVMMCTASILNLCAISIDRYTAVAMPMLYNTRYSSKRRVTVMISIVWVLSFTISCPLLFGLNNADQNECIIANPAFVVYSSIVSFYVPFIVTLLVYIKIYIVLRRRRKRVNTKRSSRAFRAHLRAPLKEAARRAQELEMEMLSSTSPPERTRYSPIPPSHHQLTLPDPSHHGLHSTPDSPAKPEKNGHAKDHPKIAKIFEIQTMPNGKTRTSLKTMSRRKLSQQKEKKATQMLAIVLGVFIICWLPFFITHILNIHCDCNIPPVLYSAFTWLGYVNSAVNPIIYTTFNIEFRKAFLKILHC

SMILES	Ki [1]	remaining at 30 min, 10 μM [2]	Ki [3]	Ki [4]	in vitro metabolic stability (in words) [2]
COc1ccc(-c2cc(F)ccc2N2CCN(CCCCn3ncc(=O)n(C)c3=O)CC2)cc1 [Compound 9b, 2-(4-(4-(5-Fluoro-4’-methoxy-[1,1’-biphenyl]-2-yl)piperazin-1-yl)butyl)-4-methyl-1,2,4-triazine-3,5(2H,4H)-dione]	> 10000 nM	45%	222 nM	45 ± 3.4 nM	
Cc1cc(=O)oc2cc(OCCCCN3CCN(c4ncccc4-c4ccncc4)CC3)ccc12 [Compound 12b, 7-(4-(4-([3,4’-Bipyridin]-2-yl)piperazin-1-yl)butoxy)-4-methyl-2H-chromen-2-one]	17 nM	14%	2730 nM	52.2 ± 10.6 nM	
CC1Oc2ccc(OCCCN3CCN(c4ncccc4-c4ccncc4)CC3)cc2NC1=O (centres unmarked) [Compound 8a, 6-(3-(4-([3,4’-Bipyridin]-2-yl)piperazin-1-yl)propoxy)-2-methyl-2H-benzo[b][1,4]oxazin-3(4H)-one]	388 nM	4%	7410 nM	10.7 ± 0.7 nM	
Cn1c(=O)cnn(CCCCN2CCN(c3ccc(F)cc3-c3ccc(C#N)cc3)CC2)c1=O [Compound 10b, 5’-Fluoro-2’-(4-(4-(4-methyl-3,5-dioxo-4,5-dihydro-1,2,4-triazin-2(3H)-yl)butyl)piperazin-1-yl)-[1,1’-biphenyl]-4-carbonitrile]	> 10000 nM	26%	101 nM	36.5 ± 5.2 nM	borderline stability value
Cc1cc(=O)oc2cc(OCCCN3CCN(c4ncccc4-c4ccncc4)CC3)ccc12 [Compound 12a, 7-(3-(4-([3,4’-Bipyridin]-2-yl)piperazin-1-yl)propoxy)-4-methyl-2H-chromen-2-one]	300 nM	19%	> 10000 nM	42.5 ± 6.2 nM	borderline stability value
Cn1c(=O)cnn(CCCN2CCN(c3ccc(F)cc3-c3ccc(C#N)cc3)CC2)c1=O [Compound 10a, 5’-Fluoro-2’-(4-(3-(4-methyl-3,5-dioxo-4,5-dihydro-1,2,4-triazin-2(3H)-yl)propyl)piperazin-1-yl)-[1,1’-biphenyl]-4-carbonitrile]	> 10000 nM	5%	180 nM	45.7 ± 1.3 nM	
Cn1c(=O)cnn(CCCCN2CCN(c3ncccc3-c3ccncc3)CC2)c1=O [Compound 11b, 2-(4-(4-([3,4’-Bipyridin]-2-yl)piperazin-1-yl)butyl)-4-methyl-1,2,4-triazine-3,5(2H,4H)-dione]	> 10000 nM	3%	> 10000 nM	79.4 ± 9 nM	
CC1Oc2ccc(OCCCCN3CCN(c4ncccc4-c4ccncc4)CC3)cc2NC1=O (centres unmarked) [Compound 8b, 6-(4-(4-([3,4’-Bipyridin]-2-yl)piperazin-1-yl)butoxy)-2-methyl-2H-benzo[b][1,4]oxazin-3(4H)-one]	9.08 nM	14%	8200 nM	9.38 ± 0.42 nM	
Cn1c(=O)cnn(CCCN2CCN(c3ncccc3-c3ccncc3)CC2)c1=O [Compound 11a, 2-(3-(4-([3,4’-Bipyridin]-2-yl)piperazin-1-yl)propyl)-4-methyl-1,2,4-triazine-3,5(2H,4H)-dione]	> 10000 nM	4%	> 10000 nM	44.5 ± 2.2 nM	
